Test results as given in US9302999B2, “Substituted triazoles as herbicides” (E. I. DU PONT DE NEMOURS AND COMPANY, priority 2012, dated 2016).

Key:
Type in all cases: in vivo
[1] = tested on: ryegrass, Italian (Italian ryegrass, Lolium multiflorum); assay: Test E pre-/postemergence: ryegrass, Italian; conditions: Preemergence, scale 0 to 100
Description: (§1) Seeds of plant species selected from corn (Zea mays), soybean (Glycine max), velvetleaf (Abutilon theophrasti), lambsquarters (Chenopodium album), poinsettia, wild (wild poinsettia, Euphorbia heterophylla), pigweed, palmer (palmer pigweed, Amaranthus palmeri), waterhemp (common waterhemp, Amaranthus rudis), smartweed (ladysthumb smartweed, Polygonum persicaria), surinam grass (Brachiaria decumbens), crabgrass, large (large crabgrass, Digitaria sanguinalis), crabgrass, Brazil (Brazilian crabgrass, Digitaria horizontalis), panicum, fall (fall panicum, Panicum dichotomiflorum), foxtail, giant (giant foxtail, Setaria faberii), foxtail, green (green foxtail, Setaria viridis), goosegrass (Eleusine indica), johnsongrass (Sorghum halepense), ragweed (common ragweed, Ambrosia elation), barnyardgrass (Echinochloa crus-galli), sandbur (southern sandbur, Cenchrus echinatus), arrowleaf sida (Sida rhombifolia), ryegrass, Italian (Italian ryegrass, Lolium multiflorum), dayflower, (VA) (Virginia dayflower, Commelina virginica), field bindweed (Convolvulus arvensis), cocklebur (common cocklebur, Xanthium strumarium), morningglory (Ipomoea coccinea), nightshade (eastern black nightshade, Solanum ptycanthum), kochia (Kochia scoparia), nutsedge, yellow (yellow nutsedge, Cyperus esculentus) and beggarticks (hairy beggarticks, Bidens pilosa) were planted into a silt loam soil and treated preemergence with test chemicals formulated in a non-phytotoxic solvent mixture which included a surfactant. At the same time, plants selected from these crop and weed species were planted in pots containing a growing medium comprising spaghnum peat moss, vermiculite, wetting agent and starter nutrients and treated with postemergence applications of some of the test chemicals formulated in the same manner. Plants ranged in height from 2 to 18 cm for postemergence treatments (1- to 4-leaf stage).
(§2) Treated plants and controls were maintained in a greenhouse for 14 to 21 days, after which time all species were compared to controls and visually evaluated. Plant response ratings, summarized in Table E, are based on a scale of 0 to 100 where 0 is no effect and 100 is complete control. A dash (-) response means no test result.

[2] = tested on: foxtail, giant (giant foxtail, Setaria faberii); assay: Test E pre-/postemergence: foxtail, giant; conditions: Preemergence, scale 0 to 100
Description: as §1, §2

[3] = tested on: japonica rice (ORYSP, Oryza sativa); assay: Test G paddy, alone and in combination: japonica rice; conditions: evaluated after 14 days
Experimental: (§3) Seeds of smallflower umbrella sedge (CYPDI, Cyperus difformis) and ducksalad (HETLI, Heteranthera limosa) were sown on the soil surface in two separate quadrants of 11 cm tubs filled with steam pasteurized Tama soil. Simultaneously, plantings of barnyardgrass (ECHCG, Echinochloa crus-galli) and japonica rice (ORYSP, Oryza sativa) were established in separate “plug” flats. Plants were grown in a greenhouse using supplemental lighting to maintain a photoperiod of approximately 16 h; daytime and nighttime temperatures were approximately 27-30° C. and 19-22° C., respectively. After 8 days, barnyardgrass plants were transplanted to one of the remaining quadrants of the tub, and the water level was adjusted to a final depth of 3 cm. Herbicide application timing was targeted at the 2.0 to 2.5 leaf stage and the plants were treated with test chemicals formulated in a non-phytotoxic solvent. Treated plants and controls were maintained in a greenhouse for 14 days, after which time all species were compared to controls and visually evaluated. Plant response ratings are summarized in Tables G1 through G3, and are based on a scale of 0 to 100 where 0 is no effect and 100 is complete control. A dash (-) response means no test result.

[4] = tested on: ducksalad (HETLI, Heteranthera limosa); assay: Test G paddy, alone and in combination: ducksalad; conditions: evaluated after 14 days
Experimental: as §3

corn (Zea mays) = assay: Test E pre-/postemergence: corn; conditions: Preemergence, scale 0 to 100
Method in brief: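 Visual injury scored 0–100 (0 no effect, 100 complete control) against controls after 14 to 21 days in greenhouse. Compounds formulated in surfactant-containing non-phytotoxic solvent, applied pre-emergence to seeded silt loam or post-emergence to 1- to 4-leaf plants in peat-based medium.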

Cc1nn(-c2ccc(F)cc2)nc1Oc1ccnc(C(F)(F)F)c1 [Compound 129, 4-[[2-(4-fluorophenyl)-5-methyl-2H-1,2,3-triazol-4-yl]oxy]-2-(trifluoromethyl)pyridine]
Plant response rating: Ryegrass, Italian ([1]; 8 g ai/ha): 0
Plant response rating: Ryegrass, Italian ([1]; 16 g ai/ha): 25
Plant response rating: Ryegrass, Italian ([1]; 31 g ai/ha): 25
Plant response rating: Ryegrass, Italian ([1]; 62 g ai/ha): 40
Plant response rating: Ryegrass, Italian ([1]; 125 g ai/ha): 60
Plant response rating: Foxtail, Giant ([2]; 8 g ai/ha): 0
Plant response rating: Foxtail, Giant ([2]; 16 g ai/ha): 20
Plant response rating: Foxtail, Giant ([2]; 31 g ai/ha): 75
Plant response rating: Foxtail, Giant ([2]; 62 g ai/ha): 98
Plant response rating: Foxtail, Giant ([2]; 125 g ai/ha): 100
ORYSP plant response rating (scale of 0 to 100) ([3]; Rate 16 g/ha): 0
ORYSP plant response rating (scale of 0 to 100) ([3]; Rate 31 g/ha): 5
ORYSP plant response rating (scale of 0 to 100) ([3]; Rate 32 g/ha): 10
HETLI plant response rating (scale of 0 to 100) ([4]; Rate 16 g/ha): 0
HETLI plant response rating (scale of 0 to 100) ([4]; Rate 31 g/ha): 40
HETLI plant response rating (scale of 0 to 100) ([4]; Rate 32 g/ha): 25
Plant response rating: Corn (corn (Zea mays); 8 g ai/ha): 0
Plant response rating: Corn (corn (Zea mays); 16 g ai/ha): 0
Plant response rating: Corn (corn (Zea mays); 31 g ai/ha): 0
Plant response rating: Corn (corn (Zea mays); 62 g ai/ha): 10
Plant response rating: Corn (corn (Zea mays); 125 g ai/ha): 10
